Counter-ions that a name gives are not always drawn.
The compounds below were run against T1, recombinant full-length USP7 (Homo sapiens, UniProt Q93009) (assay: USP7-mediated ubiquitin-rhodamine cleavage assay). Details: recombinant full-length USP7 62 pM; ubiquitin-rhodamine 100 nM; 30-minute incubation with compound, 1 hour reaction at room temperature; read-out: Potency: USP7 IC50.
T1 construct: A 25 μl reaction volume containing recombinant full-length USP7 (62 pM)
Type: biochemical
Summary of the method: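 Enzyme 62 pM; HEPES pH 7.3/150 mM NaCl/1 mM TCEP/125 μg/ml BSA; 1% DMSO; 30 min cpd preinc RT; Ub-rhodamine 100 nM, 1 h RT, dark; acetic acid stop; fluorescence; IC50 4-param fit.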

T1 sequence (Q93009 whole entry): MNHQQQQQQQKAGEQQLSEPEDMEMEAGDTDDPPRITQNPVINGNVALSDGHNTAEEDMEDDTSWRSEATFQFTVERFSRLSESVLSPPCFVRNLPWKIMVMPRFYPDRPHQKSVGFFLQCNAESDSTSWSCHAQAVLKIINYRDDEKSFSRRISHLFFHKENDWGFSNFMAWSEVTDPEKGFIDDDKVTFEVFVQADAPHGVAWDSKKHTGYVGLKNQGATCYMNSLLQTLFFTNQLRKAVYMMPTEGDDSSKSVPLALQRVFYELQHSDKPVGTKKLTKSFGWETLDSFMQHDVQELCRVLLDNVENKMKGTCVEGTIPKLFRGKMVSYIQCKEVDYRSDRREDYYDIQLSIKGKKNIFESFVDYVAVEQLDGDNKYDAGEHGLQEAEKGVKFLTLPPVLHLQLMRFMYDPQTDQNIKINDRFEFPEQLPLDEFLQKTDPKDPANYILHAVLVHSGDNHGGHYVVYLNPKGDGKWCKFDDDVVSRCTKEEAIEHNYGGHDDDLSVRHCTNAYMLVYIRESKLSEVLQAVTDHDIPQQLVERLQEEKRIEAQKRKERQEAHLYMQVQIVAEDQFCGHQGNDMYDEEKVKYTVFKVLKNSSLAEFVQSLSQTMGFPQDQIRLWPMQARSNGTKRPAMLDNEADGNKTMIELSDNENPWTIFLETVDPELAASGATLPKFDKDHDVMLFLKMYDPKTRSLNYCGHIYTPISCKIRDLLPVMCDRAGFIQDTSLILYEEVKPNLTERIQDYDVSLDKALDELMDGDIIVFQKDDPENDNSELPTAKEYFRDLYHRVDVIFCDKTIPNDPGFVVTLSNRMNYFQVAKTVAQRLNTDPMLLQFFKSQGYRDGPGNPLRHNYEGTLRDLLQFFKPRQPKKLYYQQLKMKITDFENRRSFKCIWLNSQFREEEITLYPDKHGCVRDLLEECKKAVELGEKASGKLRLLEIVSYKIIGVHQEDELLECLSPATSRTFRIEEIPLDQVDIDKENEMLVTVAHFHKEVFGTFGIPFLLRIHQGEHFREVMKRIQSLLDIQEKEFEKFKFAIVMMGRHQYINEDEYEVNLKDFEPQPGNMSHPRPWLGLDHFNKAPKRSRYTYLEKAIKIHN

SMILES | IC50 [nM]
CCC(O)c1cc2ncnc(-c3cc(Cl)cc(C)c3OCC3CNC3)c2s1 (centres unmarked) [Example 13, 1-(4-(2-(Azetidin-3-ylmethoxy)-5-chloro-3-methylphenyl)thieno[3,2-d]pyrimidin-6-yl)propan-1-ol] | 1000 to 10000
Cc1cc(Cl)cc(-c2ccnc3cc(CO)sc23)c1O[C@@H]1CNC[C@H]1C [Example 55, (7-(5-Chloro-3-methyl-2-(((3S,4R)-4-methylpyrrolidin-3-yl)oxy)phenyl)thieno[3,2-b]pyridin-2-yl)methanol] | 10000 to 30000
Cc1cc(Cl)cc(-c2ncnc3cc(Cn4c(=O)ccn(C)c4=O)sc23)c1O[C@H]1CCCNC1 [Example 251, (S)-3-((4-(5-Chloro-3-methyl-2-(piperidin-3-yloxy)phenyl)thieno[3,2-d]pyrimidin-6-yl)methyl)-1-methylpyrimidine-2,4(1H,3H)-dione] | < 1000
O=C1CCC(=O)N1Cc1cc2nccc(-c3cc(C(F)(F)F)cc(Cl)c3O[C@@H]3CNC[C@@H]3F)c2s1 [Example 54, 1-((7-(3-Chloro-2-(((3R,4S)-4-fluoropyrrolidin-3-yl)oxy)-5-(trifluoromethyl)phenyl)thieno[3,2-b]pyridin-2-yl)methyl)pyrrolidine-2,5-dione] | < 1000
Cc1cc(Cl)cc(-c2ccnc3cc(CN4C(=O)CCC4=O)sc23)c1O[C@@H]1CNC[C@@H]1C [Example 105, 1-((7-(5-Chloro-3-methyl-2-(((3S,4S)-4-methylpyrrolidin-3-yl)oxy)phenyl)thieno[3,2-b]pyridin-2-yl)methyl)pyrrolidine-2,5-dione] | < 1000

Further lines, results first:

IC50 [nM] | SMILES
< 1000 | Cc1cc(Cl)cc(-c2ncnc3cc(CN4C(=O)C5C(C4=O)C5(C)C)sc23)c1O[C@@H]1CN(C)C[C@@H]1F (stereo partly drawn) [Example 348, 3-[[4-[5-chloro-2-[(3R,4S)-4-fluoro-1-methyl-pyrrolidin-3-yl]oxy-3-methyl-phenyl]thieno[3,2-d]pyrimidin-6-yl]methyl]-6,6-dimethyl-3-azabicyclo[3.1.0]hexane-2,4-dione dihydrochloride]
< 1000 | Cc1cc(Cl)cc(-c2ccnc3cc(CN4C(=O)CCC4=O)sc23)c1O[C@H]1[C@@H]2CNC[C@H]1C2 [Example 206, 1-((7-(2-(((1R,5S,6s)-3-Azabicyclo[3.1.1]heptan-6-yl)oxy)-5-chloro-3-methylphenyl)thieno[3,2-b]pyridin-2-yl)methyl)pyrrolidine-2,5-dione]
< 1000 | CCN1C[C@H](F)[C@H](Oc2c(C)cc(Cl)cc2-c2ccnc3cc(CN4C(=O)CCC4=O)sc23)C1 [Example 299, 1-[[7-[5-chloro-2-[(3R,4S)-1-ethyl-4-fluoro-pyrrolidin-3-yl]oxy-3-methyl-phenyl]thieno[3,2-b]pyridin-2-yl]methyl]pyrrolidine-2,5-dione]

Same assay, conditions: recombinant full-length USP7 62 pM; ubiquitin-rhodamine 100 nM; 30-minute pre-incubation, 1 hour reaction at room temperature; read-out: Potency (USP7 IC50)

SMILES | IC50 [nM]
Cc1cc(Cl)cc(-c2ccnc3cc(Cn4c(=O)ccn(CC(F)(F)F)c4=O)sc23)c1O[C@H]1CCNC[C@@H]1F [Example 559, 3-[[7-[5-chloro-2-[[(3S,4S)-3-fluoro-4-piperidyl]oxy]-3-methyl-phenyl]thieno[3,2-b]pyridin-2-yl]methyl]-1-(2,2,2-trifluoroethyl)pyrimidine-2,4-dione] | < 1000
Cc1cc(Cl)cc(-c2ccnc3cc(Cn4c(=O)ccn(CC(F)(F)F)c4=O)sc23)c1OC1CC(N2CCOC[C@H]2C)C1 (stereo partly drawn) [Example 657, 3-[[7-[5-chloro-3-methyl-2-[3-[(3R)-3-methylmorpholin-4-yl]cyclobutoxy]phenyl]thieno[3,2-b]pyridin-2-yl]methyl]-1-(2,2,2-trifluoroethyl)pyrimidine-2,4-dione; 2,2,2-trifluoroacetic acid] | < 1000
Cc1cc(Cl)cc(-c2ccnc3cc(Cn4c(=O)ccn(C)c4=O)sc23)c1OC1CCNCC1(C)C (centres unmarked) [Example 546, 3-[[7-[5-chloro-2-[(3,3-dimethyl-4-piperidyl)oxy]-3-methyl-phenyl]thieno[3,2-b]pyridin-2-yl]methyl]-1-methyl-pyrimidine-2,4-dione; 2,2,2-trifluoroacetic acid] | < 1000
